Results reported in patent US12180156B2 (priority 2020, dated 2024).
Like-named read-outs stand apart in the source and are kept apart here.

Key:
[1] = system: FIPV; assay: Inhibitory activity against FIPV in cell culture (Table 1); format: cell-based; conditions: Alphacoronavirus 1, cell culture
[2] = Nonspecific cytotoxic effects (CytoTox 96 assay); format: cell-based; conditions: African green monkey (Vero E6) and cat (CRFK); Vero E6 and CRFK cells, 72 hr
Description: (§1) Nonspecific cytotoxic effects. […] Confluent cells grown in 96-well plates were incubated with various concentrations (1 to 100 μM) of each compound for 72 hr. Cell cytotoxicity was measured by a CytoTox 96 nonradioactive cytotoxicity assay kit (Promega, Madison, WI), and the CC50 values were calculated using a variable slope by GraphPad Prism software (Table 2).

[3] = system: SARS-CoV-2; assay: Cell-based assay for antiviral activity in A549-ACE2 cells; conditions: Severe acute respiratory syndrome coronavirus 2, mean ± standard deviation
[4] = system: SARS-CoV-2; assay: Cell-based assay for antiviral activity, plaque reduction in Vero E6 cells; conditions: mean ± standard deviation
[5] = biological target: SARS-CoV2 (enzyme) (Severe acute respiratory syndrome coronavirus 2 (2019-nCoV) (SARS-CoV-2), UniProt P0DTD1); assay: Inhibitory activity against SARS-CoV2 enzyme (Table 1); format: biochemical
[6] = biological target: SARS-CoV-2 3CLpro (Severe acute respiratory syndrome coronavirus 2 (2019-nCoV) (SARS-CoV-2), UniProt P0DTD1); assay: biochemical; format: biochemical
[7] = system: SARS-CoV-2; format: in vivo, K18-hACE2 mice; conditions: for lung edema average score: score 0-4
[8] = system: Vero E6 and CRFK cells; assay: Nonspecific cytotoxic effects (CytoTox 96 assay); format: cell-based
Description: as §1

[9] = system: SARS-CoV-2; conditions: cited from earlier work
[10] = Severe acute respiratory syndrome coronavirus 2, Vero C1008, read-out: EC50 (μM) VeroE6, VeroE6 cells
[11] = read-out: EC50 (μM) VeroE6, VeroE6 cells

## CC(C)C[C@H](NC(=O)OCc1ccccc1)C(=O)N[C@H](C=O)C[C@@H]1CCNC1=O [Parental aldehyde, reference compound]
[1]
  EC50: 0.05 µM

## [2H]c1c([2H])c([2H])c(COC(=O)N[C@@H](CC(C)C)C(=O)N[C@@H](C[C@@H]2CCNC2=O)C(O)S(=O)(=O)[O-])c([2H])c1[2H].[Na+] (stereo partly drawn) [Compound 7, Sodium (2S)-1-hydroxy-2-((S)-4-methyl-2-((((phenyl-d5)methoxy)carbonyl)amino)pentanamido)-3-((S)-2-oxopyrrolidin-3-yl)propane-1-sulfonate]
[2]
  CC50 at 72 h: > 100000 nM
[3]
  EC50: 0.1 ± 0.01 µM
[4]; [10]
  EC50: 0.068 to 0.086 µM
[4]; [11]
  EC50: 0.079 ± 0.01 µM

## [2H]C([2H])(OC(=O)N[C@@H](CC(C)C)C(=O)N[C@H](C=O)C[C@@H]1CCNC1=O)c1ccccc1 [Compound 1, Phenylmethyl-d2 ((S)-4-methyl-1-oxo-1-(((S)-1-oxo-3-((S)-2-oxopyrrolidin-3-yl)propan-2-yl)amino)pentan-2-yl)carbamate]
[2]
  CC50 at 72 h: > 100000 nM
[3]
  EC50: 0.086 ± 0.01 µM
[4]; [10]
  EC50: 0.068 to 0.086 µM
[4]; [11]
  EC50: 0.068 ± 0.01 µM

## [2H]C([2H])(OC(=O)N[C@@H](CC(C)C)C(=O)N[C@@H](C[C@@H]1CCNC1=O)C(OC(=O)CCCCC)S(=O)(=O)[O-])c1ccccc1.[Na+] (stereo partly drawn) [Prodrug of GC1129-No2]
[1]
  EC50: 0.06 µM
[5]
  EC50: 0.8 µM

## [2H]C([2H])(OC(=O)N[C@@H](CC(C)C)C(=O)N[C@@H](C[C@@H]1CCNC1=O)C(OC(C)=O)S(=O)(=O)[O-])c1ccccc1.[Na+] (stereo partly drawn) [Prodrug of GC1129-No1]
[1]
  EC50: 0.06 µM
[5]
  EC50: 0.7 µM

## [2H]C([2H])(OC(=O)N[C@@H](CC(C)C)C(=O)N[C@@H](C[C@@H]1CCNC1=O)C(=O)C(=O)NCc1ccccc1)c1ccccc1 [Compound 5, Phenylmethyl-d2 ((S)-1-(((S)-4-(benzylamino)-3,4-dioxo-1-((S)-2-oxopyrrolidin-3-yl)butan-2-yl)amino)-4-methyl-1-oxopentan-2-yl)carbamate]
[2]
  CC50 at 72 h: > 100000 nM
[6]
  IC50: 1310 ± 550 nM
  potency (IC50) in the enzyme assay compared to aldehyde and bisulfite counterparts: markedly decreased potency

## [2H]c1c([2H])c([2H])c(C([2H])([2H])OC(=O)N[C@@H](CC(C)C)C(=O)N[C@@H](C[C@@H]2CCNC2=O)C(O)S(=O)(=O)[O-])c([2H])c1[2H].[Na+] (stereo in doubt) [Deuterated GC376-No1]
[1]
  EC50: 0.08 µM

## [2H]c1c([2H])c([2H])c(C([2H])([2H])OC(=O)N[C@@H](CC(C)C)C(=O)N[C@H](C=O)C[C@@H]2CCNC2=O)c([2H])c1[2H] [Compound 9, (Phenyl-d5)methyl-d2 ((S)-4-methyl-1-oxo-1-(((S)-1-oxo-3-((S)-2-oxopyrrolidin-3-yl)propan-2-yl)amino)pentan-2-yl)carbamate]
[2]
  CC50 at 72 h: > 100000 nM

## [2H]C([2H])(OC(=O)N[C@@H](CC(C)C)C(=O)N[C@@H](C[C@@H]1CCNC1=O)C(OC(=O)CCCCC)S(=O)(=O)[O-])c1ccccc1.[Na+] (stereo partly drawn) [Compound 4, Sodium (5S,8S)-5-isobutyl-3,6,11-trioxo-8-(((S)-2-oxopyrrolidin-3-yl)methyl)-1-phenyl-2,10-dioxa-4,7-diazahexadecane-9-sulfonate-1,1-d2]
[2]
  CC50 at 72 h: > 100000 nM
[6]
  IC50: 800 ± 100 nM
  potency (IC50) in the enzyme assay compared to aldehyde and bisulfite counterparts: significantly increased IC50 values

## [2H]C([2H])(OC(=O)N[C@@H](CC(C)C)C(=O)N[C@@H](C[C@@H]1CCNC1=O)C(O)S(=O)(=O)[O-])c1ccccc1.[Na+] (stereo partly drawn) [Compound 2, Sodium (2S)-1-hydroxy-2-((S)-4-methyl-2-(((phenylmethoxy-d2)carbonyl)amino)pentan-amido)-3-((S)-2-oxopyrrolidin-3-yl)propane-1-sulfonate]
[2]
  CC50 at 72 h: > 100000 nM
[7]; 2 and 5 dpi, detection limit 200 PFU/g
  pathological changes and infectious virus in the brains: neither pathological changes nor infectious virus was detected
[7]; 2 dpi
  lung perivascular infiltrates: Mild perivascular infiltrates
  lung edema average score: 0
[7]; 2 dpi, second experiment
  lung virus titers versus vehicle: statistically significant reduction of virus titers
[7]; 5 dpi
  lung edema average score: 2
[7]; first experiment: 2×10^3 pfu per mouse, 100 mg/kg/day once a day from 1 dpi, 15 dpi
  survival: All compound 2-treated mice gradually gained body weight and were alive at the end of the study
[7]; first experiment: 2×10^3 pfu per mouse, 100 mg/kg/day, 5-10 dpi, versus vehicle
  body weight loss: loss was less severe compared to vehicle-treated mice
[7]; mouse, in vivo
  lung perivascular infiltrations average score: 2
[3]
  EC50: 0.069 ± 0.01 µM
[4]; [10]
  EC50: 0.068 to 0.086 µM
[4]; [11]
  EC50: 0.086 ± 0.02 µM

## [2H]c1c([2H])c([2H])c(COC(=O)N[C@@H](CC(C)C)C(=O)N[C@H](C=O)C[C@@H]2CCNC2=O)c([2H])c1[2H] [Compound 6, (Phenyl-d5)methyl ((S)-4-methyl-1-oxo-1-(((S)-1-oxo-3-((S)-2-oxopyrrolidin-3-yl)propan-2-yl)amino)pentan-2-yl)carbamate]
[2]
  CC50 at 72 h: > 100000 nM
[3]
  EC50: 0.075 ± 0.01 µM
[4]; [10]
  EC50: 0.068 to 0.086 µM
[4]; [11]
  EC50: 0.077 ± 0.01 µM

## [2H]C([2H])(OC(=O)N[C@@H](CC(C)C)C(=O)N[C@@H](C[C@@H]1CCNC1=O)C(OC(C)=O)S(=O)(=O)[O-])c1ccccc1.[Na+] (stereo partly drawn) [Compound 3, Sodium (5S,8S)-5-isobutyl-3,6,11-trioxo-8-(((S)-2-oxopyrrolidin-3-yl)methyl)-1-phenyl-2,10-dioxa-4,7-diazadodecane-9-sulfonate-1,1-d2]
[2]
  CC50 at 72 h: > 100000 nM
[6]
  IC50: 710 ± 60 nM
  potency (IC50) in the enzyme assay compared to aldehyde and bisulfite counterparts: significantly increased IC50 values

## [2H]c1c([2H])c([2H])c(C([2H])([2H])OC(=O)N[C@@H](CC(C)C)C(=O)N[C@@H](C[C@@H]2CCNC2=O)C(OC(=O)CCCCC)S(=O)(=O)[O-])c([2H])c1[2H].[Na+] (stereo partly drawn) [Compound 11, Sodium (5S,8S)-5-isobutyl-3,6,11-trioxo-8-(((S)-2-oxopyrrolidin-3-yl)methyl)-1-(phenyl-d5)-2,10-dioxa-4,7-diazahexadecane-9-sulfonate-1,1-d2]
[2]
  CC50 at 72 h: > 100000 nM
[6]
  IC50: 770 ± 120 nM
  potency (IC50) in the enzyme assay compared to aldehyde and bisulfite counterparts: significantly increased IC50 values

## [2H]c1c([2H])c([2H])c(C([2H])([2H])OC(=O)N[C@@H](CC(C)C)C(=O)N[C@H](C=O)C[C@@H]2CCNC2=O)c([2H])c1[2H] [Deuterated GC373-No1]
[1]
  EC50: 0.05 µM

## CC(C)C[C@H](NC(=O)OCc1ccccc1)C(=O)N[C@@H](C[C@@H]1CCNC1=O)C(O)S(=O)(=O)O (stereo partly drawn) [Compound 10, Sodium(2S)-1-hydroxy-2-((S)-4-methyl-2-((((phenyl-d5)methoxy-d2)carbonyl)amino)pentanamido)-3-((S)-2-oxopyrrolidin-3-yl)propane-1-sulfonate]
[8]; Vero E6 and CRFK cells, 72 hr
  CC50: > 100000 nM

## [2H]C([2H])(OC(=O)N[C@@H](CC(C)C)C(=O)N[C@H](C=O)C[C@@H]1CCNC1=O)c1ccccc1 [Deuterated GC373-No2]
[1]
  EC50: 0.05 µM

## [2H]c1c([2H])c([2H])c(COC(=O)N[C@@H](CC(C)C)C(=O)N[C@@H](C[C@@H]2CCNC2=O)C(OC(=O)CCCCC)S(=O)(=O)[O-])c([2H])c1[2H].[Na+] (stereo partly drawn) [Compound 8, Sodium (5S,8S)-5-isobutyl-3,6,11-trioxo-8-(((S)-2-oxopyrrolidin-3-yl)methyl)-1-(phenyl-d5)-2,10-dioxa-4,7-diazahexadecane-9-sulfonate]
[2]
  CC50 at 72 h: > 100000 nM
[6]
  IC50: 680 ± 350 nM
  potency (IC50) in the enzyme assay compared to aldehyde and bisulfite counterparts: significantly increased IC50 values

## CC(C)C[C@H](NC(=O)OCc1ccccc1)C(=O)N[C@@H](C[C@@H]1CCNC1=O)C(O)S(=O)(=O)[O-].[Na+] (stereo partly drawn) [GC376, reference compound]
[8]; up to 100 μM
  cytotoxicity: did not show any cytotoxicity
[1]
  EC50: 0.05 µM
[9]; given three hours after virus inoculation that led to 100% fatality, versus vehicle
  survival: no difference in survival
[9]; given three hours after virus inoculation, versus vehicle-treated controls
  viral load and inflammation in the lungs: reduced viral load and inflammation
[4]; [10]
  EC50: 0.23 ± 0.01 µM
